Results on 19 compounds are retold here after ChEMBL document CHEMBL1159054, “Cyclic diarylheptanoids as Na+-glucose cotransporter (SGLT) inhibitors from Acer nikoense” (Bioorg Med Chem Lett, 2010).

The structures appear in SMILES notation.

As usually defined, the inhibition is the relative decrease from the control value, in per cent.

For test [1], the target named is T1, Sodium/glucose cotransporter 2 (Homo sapiens) (UniProt P31639).
T1 sequence (whole entry): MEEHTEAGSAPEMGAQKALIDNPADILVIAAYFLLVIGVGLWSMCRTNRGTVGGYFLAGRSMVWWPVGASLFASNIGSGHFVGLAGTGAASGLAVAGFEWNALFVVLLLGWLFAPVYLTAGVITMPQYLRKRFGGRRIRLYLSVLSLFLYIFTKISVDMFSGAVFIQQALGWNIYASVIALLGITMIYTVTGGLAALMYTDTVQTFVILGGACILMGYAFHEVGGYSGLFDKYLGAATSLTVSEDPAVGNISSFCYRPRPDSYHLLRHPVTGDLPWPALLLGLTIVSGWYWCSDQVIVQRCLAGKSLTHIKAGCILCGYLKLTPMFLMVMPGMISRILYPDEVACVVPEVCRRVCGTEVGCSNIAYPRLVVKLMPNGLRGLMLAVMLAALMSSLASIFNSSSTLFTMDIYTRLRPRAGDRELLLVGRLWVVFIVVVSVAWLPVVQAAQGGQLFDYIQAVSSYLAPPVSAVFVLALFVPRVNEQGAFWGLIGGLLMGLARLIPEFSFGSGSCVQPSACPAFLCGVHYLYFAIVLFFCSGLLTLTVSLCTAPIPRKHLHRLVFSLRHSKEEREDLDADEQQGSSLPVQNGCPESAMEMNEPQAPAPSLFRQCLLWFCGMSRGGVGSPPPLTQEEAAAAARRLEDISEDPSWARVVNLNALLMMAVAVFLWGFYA
The experiment in a line: Inhibition of human SGLT2 expressed in COS1 cells assessed as [14C]methyl-alpha-D-glucopyranoside uptake at 50 uM. It is filed as cell-based. The settings on record: COS-1.

Test [2] concerns the target T2, Sodium/glucose cotransporter 1 (Homo sapiens) (UniProt P13866).
T2 sequence (whole entry): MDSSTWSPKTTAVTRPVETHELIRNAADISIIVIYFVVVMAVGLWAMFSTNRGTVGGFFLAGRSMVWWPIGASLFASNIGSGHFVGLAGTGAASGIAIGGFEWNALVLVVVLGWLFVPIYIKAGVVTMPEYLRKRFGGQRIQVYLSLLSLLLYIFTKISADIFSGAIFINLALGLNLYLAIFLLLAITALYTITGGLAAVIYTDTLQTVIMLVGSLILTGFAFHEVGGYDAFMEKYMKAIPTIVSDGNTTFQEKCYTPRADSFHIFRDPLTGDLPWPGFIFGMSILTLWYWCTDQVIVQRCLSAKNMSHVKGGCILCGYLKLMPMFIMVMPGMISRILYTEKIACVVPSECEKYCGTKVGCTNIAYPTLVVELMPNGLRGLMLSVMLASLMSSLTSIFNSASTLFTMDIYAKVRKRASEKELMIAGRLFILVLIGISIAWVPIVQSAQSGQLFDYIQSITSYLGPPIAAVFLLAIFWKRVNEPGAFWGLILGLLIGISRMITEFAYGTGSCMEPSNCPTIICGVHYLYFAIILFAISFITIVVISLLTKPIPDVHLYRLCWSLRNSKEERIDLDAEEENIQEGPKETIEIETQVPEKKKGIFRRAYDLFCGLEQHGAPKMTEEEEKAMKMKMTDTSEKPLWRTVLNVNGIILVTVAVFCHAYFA
The experiment in a line: Inhibition of human SGLT1 expressed in COS1 cells assessed as [14C]methyl-alpha-D-glucopyranoside uptake at 50 uM. It is filed as cell-based. As to conditions: COS-1.

With `COc1ccc2cc1Oc1ccc(cc1)CC[C@@H](O)CCCC2`, the inhibition was 29.5% in test [1] and 67.8% in test [2].

In the case of `CC(C)C(=O)Oc1ccc2cc1Oc1ccc(cc1)CC[C@@H](OC(=O)C(C)C)CCCC2`, the inhibition in test [1] amounted to 34.3%; in test [2] it was 20.6%.

Regarding `COc1ccc2cc1Oc1ccc(cc1)CCC(=O)CCCC2`, the inhibition in test [1] was 53.3%; in test [2] it was 44.6%.

As to `O=C1CCc2ccc(cc2)Oc2cc(ccc2O)CCCCN1`, the inhibition in test [1] stood at 76.9%; in test [2] it was 46.5%.

As for `O[C@H]1CCCCc2ccc(OCc3ccccc3)c(c2)Oc2ccc(cc2)CC1`, the inhibition turned out to be 45.3% in test [1] and 31.4% in test [2].

For `O=C(Oc1ccc2cc1Oc1ccc(cc1)CC[C@@H](OC(=O)c1ccccc1)CCCC2)c1ccccc1`, the figures for the inhibition in test [1] and in test [2] were -9.7% and -1.7%, respectively.

Take `COc1ccc2cc1Oc1ccc(cc1)CCCCC(O)CC2` (stereo not drawn): the inhibition in test [1] was determined as 62.4%; in test [2], 77.9%.

For `O=C1CCCCc2ccc(O)c(c2)Oc2ccc(cc2)CC1`, the results for the inhibition in test [1] and in test [2] were 67.8% and 44.9%, respectively.

For the compound `Oc1ccc2cc1Oc1ccc(cc1)C/C=C/CCCC2`, the inhibition stood at 15.3% in test [1] and 73.7% in test [2].

Consider `CC(=O)Oc1ccc2cc1Oc1ccc(cc1)CC[C@@H](OC(C)=O)CCCC2`, for which the inhibition in test [1] came to 67.5%; in test [2], 68.8%.

As for `O=C1CCCCc2ccc(OCc3ccccc3)c(c2)Oc2ccc(cc2)CC1`, the inhibition in test [1] came out at 19.8%; in test [2], 3.9%.

On to `OC[C@H]1O[C@H](Oc2ccc3cc2Oc2ccc(cc2)CC[C@@H](O)CCCC3)[C@H](O)[C@@H](O)[C@@H]1O`, for which the inhibition in test [1] worked out at 15%; in test [2] it was 18.3%.

With `CC(=O)Oc1ccc2cc1Oc1ccc(cc1)CCC(=O)CCCC2`, the inhibition in test [1] was 19.3%; in test [2], 13.5%.

Turning to `COc1ccc2cc1Oc1ccc(cc1)CCCCC(=O)CC2`, the inhibition in test [1] stood at 65.4%; in test [2], 37.7%.

In the case of `Oc1ccc2cc1Oc1ccc(cc1)CCCC[C@H](O)CC2`, the figures for the inhibition in test [1] and in test [2] were 54.2% and 94.2%, respectively.

Take `O=C(Oc1ccc2cc1Oc1ccc(cc1)CC[C@@H](OC(=O)c1ccc(Cl)cc1)CCCC2)c1ccc(Cl)cc1`: the inhibition was 16.8% in test [1] and 15.7% in test [2].

Turning to `O=C1CCCCc2ccc(OC(=O)c3ccccc3)c(c2)Oc2ccc(cc2)CC1`, the figures for the inhibition in test [1] and in test [2] were 45.2% and 1.4%, respectively.

As for `Oc1ccc2cc1Oc1ccc(cc1)CC[C@H](O)CCCC2`, the values for the inhibition in test [1] and in test [2] were 33.9% and 92.7%, respectively.

For the compound `Oc1ccc2cc1Oc1ccc(cc1)CCCCCCC2`, the inhibition was determined as 77.4% in test [1] and 96.3% in test [2].
